Measured values reported in ChEMBL document CHEMBL5154747, “Discovery of new carbonic anhydrase IX inhibitors as anticancer agents by toning the hydrophobic and hydrophilic rims of the active site to encounter the dual-tail approach” (Eur J Med Chem, 2022).

Experiments:
Carbonic anhydrase 9 = Carbonic anhydrase 9 (Homo sapiens, UniProt Q16790); assay: Inhibition of recombinant human CA 9 preincubated for 15 mins by phenol red dye based stopped flow CO2 hydration assay
CCRF-CEM = assay: Anticancer activity against human CCRF-CEM cells assessed as cell growth inhibition at 10 uM incubated for 48 hrs by SRB assay relative to control; assay type: functional; conditions: read-out: GI
RPMI-8226 = assay: Anticancer activity against human RPMI-8226 cells assessed as cell growth inhibition at 10 uM incubated for 48 hrs by SRB assay relative to control; assay type: functional; conditions: read-out: GI
SR = assay: Anticancer activity against human SR cells assessed as cell growth inhibition at 10 uM incubated for 48 hrs by SRB assay relative to control; assay type: functional; conditions: read-out: GI
A549 = assay: Anticancer activity against human A549 cells assessed as cell growth inhibition at 10 uM incubated for 48 hrs by SRB assay relative to control; assay type: functional; conditions: read-out: GI
HOP-92 = assay: Anticancer activity against human HOP-92 cells assessed as cell growth inhibition at 10 uM incubated for 48 hrs by SRB assay relative to control; assay type: functional; conditions: read-out: GI
NCI-H226 = assay: Anticancer activity against human NCI-H226 cells assessed as cell growth inhibition at 10 uM incubated for 48 hrs by SRB assay relative to control; assay type: functional; conditions: read-out: GI
NCI-H23 = assay: Anticancer activity against human NCI-H23 cells assessed as cell growth inhibition at 10 uM incubated for 48 hrs by SRB assay relative to control; assay type: functional; conditions: read-out: GI
NCI-H460 = assay: Anticancer activity against human NCI-H460 cells assessed as cell growth inhibition at 10 uM incubated for 48 hrs by SRB assay relative to control; assay type: functional; conditions: read-out: GI
NCI-H522 = assay: Anticancer activity against human NCI-H522 cells assessed as cell growth inhibition at 10 uM incubated for 48 hrs by SRB assay relative to control; assay type: functional; conditions: read-out: GI
HCC 2998 = assay: Anticancer activity against human HCC 2998 cells assessed as cell growth inhibition at 10 uM incubated for 48 hrs by SRB assay relative to control; assay type: functional; conditions: read-out: GI
HCT-116 = assay: Anticancer activity against human HCT-116 cells assessed as cell growth inhibition at 10 uM incubated for 48 hrs by SRB assay relative to control; assay type: functional; conditions: read-out: GI
HCT-15 = assay: Anticancer activity against human HCT-15 cells assessed as cell growth inhibition at 10 uM incubated for 48 hrs by SRB assay relative to control; assay type: functional; conditions: read-out: GI
HT-29 = assay: Anticancer activity against human HT-29 cells assessed as cell growth inhibition at 10 uM incubated for 48 hrs by SRB assay relative to control; assay type: functional; conditions: read-out: GI
KM12 = assay: Anticancer activity against human KM12 cells assessed as cell growth inhibition at 10 uM incubated for 48 hrs by SRB assay relative to control; assay type: functional; conditions: read-out: GI
SW-620 = assay: Anticancer activity against human SW-620 cells assessed as cell growth inhibition at 10 uM incubated for 48 hrs by SRB assay relative to control; assay type: functional; conditions: read-out: GI
SF-268 = assay: Anticancer activity against human SF-268 cells assessed as cell growth inhibition at 10 uM incubated for 48 hrs by SRB assay relative to control; assay type: functional; conditions: read-out: GI
SF-539 = assay: Anticancer activity against human SF-539 cells assessed as cell growth inhibition at 10 uM incubated for 48 hrs by SRB assay relative to control; assay type: functional; conditions: read-out: GI
SNB-75 = assay: Anticancer activity against human SNB-75 cells assessed as cell growth inhibition at 10 uM incubated for 48 hrs by SRB assay relative to control; assay type: functional; conditions: read-out: GI
LOX IMVI = assay: Anticancer activity against human LOX IMVI cells assessed as cell growth inhibition at 10 uM incubated for 48 hrs by SRB assay relative to control; assay type: functional; conditions: read-out: GI
Malme-3M = assay: Anticancer activity against human Malme-3M cells assessed as cell growth inhibition at 10 uM incubated for 48 hrs by SRB assay relative to control; assay type: functional; conditions: read-out: GI
MDA-MB-435 = assay: Anticancer activity against human MDA-MB-435 cells assessed as cell growth inhibition at 10 uM incubated for 48 hrs by SRB assay relative to control; assay type: functional; conditions: read-out: GI
SK-MEL-2 = assay: Anticancer activity against human SK-MEL-2 cells assessed as cell growth inhibition at 10 uM incubated for 48 hrs by SRB assay relative to control; assay type: functional; conditions: read-out: GI
SK-MEL-5 = assay: Anticancer activity against human SK-MEL-5 cells assessed as cell growth inhibition at 10 uM incubated for 48 hrs by SRB assay relative to control; assay type: functional; conditions: read-out: GI
UACC-257 = assay: Anticancer activity against human UACC-257 cells assessed as cell growth inhibition at 10 uM incubated for 48 hrs by SRB assay relative to control; assay type: functional; conditions: read-out: GI
IGROV-1 = assay: Anticancer activity against human IGROV-1 cells assessed as cell growth inhibition at 10 uM incubated for 48 hrs by SRB assay relative to control; assay type: functional; conditions: read-out: GI
OVCAR-3 = assay: Anticancer activity against human OVCAR-3 cells assessed as cell growth inhibition at 10 uM incubated for 48 hrs by SRB assay relative to control; assay type: functional; conditions: read-out: GI
NCI/ADR-RES = assay: Anticancer activity against human NCI/ADR-RES cells assessed as cell growth inhibition at 10 uM incubated for 48 hrs by SRB assay relative to control; assay type: functional; conditions: read-out: GI
SK-OV-3 = assay: Anticancer activity against human SK-OV-3 cells assessed as cell growth inhibition at 10 uM incubated for 48 hrs by SRB assay relative to control; assay type: functional; conditions: read-out: GI
A498 = assay: Anticancer activity against human A498 cells assessed as cell growth inhibition at 10 uM incubated for 48 hrs by SRB assay relative to control; assay type: functional; conditions: read-out: GI
ACHN = assay: Anticancer activity against human ACHN cells assessed as cell growth inhibition at 10 uM incubated for 48 hrs by SRB assay relative to control; assay type: functional; conditions: read-out: GI
CAKI-1 = assay: Anticancer activity against human CAKI-1 cells assessed as cell growth inhibition at 10 uM incubated for 48 hrs by SRB assay relative to control; assay type: functional; conditions: read-out: GI
SN12C = assay: Anticancer activity against human SN12C cells assessed as cell growth inhibition at 10 uM incubated for 48 hrs by SRB assay relative to control; assay type: functional; conditions: read-out: GI
UO-31 = assay: Anticancer activity against human UO-31 cells assessed as cell growth inhibition at 10 uM incubated for 48 hrs by SRB assay relative to control; assay type: functional; conditions: read-out: GI
PC-3 = assay: Anticancer activity against human PC-3 cells assessed as cell growth inhibition at 10 uM incubated for 48 hrs by SRB assay relative to control; assay type: functional; conditions: read-out: GI
MCF7 = assay: Anticancer activity against human MCF7 cells assessed as cell growth inhibition at 10 uM incubated for 48 hrs by SRB assay relative to control; assay type: functional; conditions: read-out: GI
MDA-MB-231 = assay: Anticancer activity against human MDA-MB-231 cells assessed as cell growth inhibition at 10 uM incubated for 48 hrs by SRB assay relative to control; assay type: functional; conditions: read-out: GI
Hs-578T = assay: Anticancer activity against human Hs-578T cells assessed as cell growth inhibition at 10 uM incubated for 48 hrs by SRB assay relative to control; assay type: functional; conditions: read-out: GI
T47D = assay: Anticancer activity against human T47D cells assessed as cell growth inhibition at 10 uM incubated for 48 hrs by SRB assay relative to control; assay type: functional; conditions: read-out: GI
MDA-MB-468 = assay: Anticancer activity against human MDA-MB-468 cells assessed as cell growth inhibition at 10 uM incubated for 48 hrs by SRB assay relative to control; assay type: functional; conditions: read-out: GI

With `NS(=O)(=O)c1ccc(Nc2nc(N/N=C/c3ccc([N+](=O)[O-])cc3)nc(Nc3ccccc3)n2)cc1` the Ki (Carbonic anhydrase 9) was 31.7 nM, the inhibition of growth at 10 µM (CCRF-CEM) was 88% and the inhibition of growth at 10 µM (RPMI-8226) was 56%. It also gave an inhibition of growth at 10 µM (SR) of 84%, an inhibition of growth at 10 µM (A549) of less than 10% and an inhibition of growth at 10 µM (HOP-92) of 50%. The inhibition of growth at 10 µM (NCI-H226) was 40%, the inhibition of growth at 10 µM (NCI-H23) was 87% and the inhibition of growth at 10 µM (NCI-H460) was 98%. It also gave an inhibition of growth at 10 µM (NCI-H522) of 51%, an inhibition of growth at 10 µM (HCC 2998) of 80% and an inhibition of growth at 10 µM (HCT-116) of 83%. The inhibition of growth at 10 µM (HCT-15) was 13%, the inhibition of growth at 10 µM (HT-29) was 75% and the inhibition of growth at 10 µM (KM12) was 62%. The inhibition of growth at 10 µM (SW-620) was 81%, the inhibition of growth at 10 µM (SF-268) was 73% and the inhibition of growth at 10 µM (SF-539) was 136%. For the same compound, the inhibition of growth at 10 µM (SNB-75) was 54%, the inhibition of growth at 10 µM (LOX IMVI) was 120% and the inhibition of growth at 10 µM (Malme-3M) was 63%. The inhibition of growth at 10 µM (MDA-MB-435) was 66%, the inhibition of growth at 10 µM (SK-MEL-2) was 81% and the inhibition of growth at 10 µM (SK-MEL-5) was 67%. It also gave an inhibition of growth at 10 µM (UACC-257) of 17%, an inhibition of growth at 10 µM (IGROV-1) of 47% and an inhibition of growth at 10 µM (OVCAR-3) of 53%. It also gave an inhibition of growth at 10 µM (NCI/ADR-RES) of less than 10%, an inhibition of growth at 10 µM (SK-OV-3) of 32% and an inhibition of growth at 10 µM (A498) of 81%. The inhibition of growth at 10 µM (ACHN) was 17%, the inhibition of growth at 10 µM (CAKI-1) was 49% and the inhibition of growth at 10 µM (SN12C) was 72%. It also gave an inhibition of growth at 10 µM (UO-31) of 18%, an inhibition of growth at 10 µM (PC-3) of 49% and an inhibition of growth at 10 µM (MCF7) of 90%. The inhibition of growth at 10 µM (MDA-MB-231) was 54%, the inhibition of growth at 10 µM (Hs-578T) was 46% and the inhibition of growth at 10 µM (T47D) was 85%. The inhibition of growth at 10 µM (MDA-MB-468) was 98%.
With `NS(=O)(=O)c1ccc(Nc2nc(N/N=C/c3cccs3)nc(Nc3ccccc3)n2)cc1` the Ki (Carbonic anhydrase 9) was 255 nM, the inhibition of growth at 10 µM (CCRF-CEM) was 68% and the inhibition of growth at 10 µM (RPMI-8226) was 47%. The inhibition of growth at 10 µM (SR) was 52%, the inhibition of growth at 10 µM (A549) was 11% and the inhibition of growth at 10 µM (HOP-92) was 44%. For the same compound, the inhibition of growth at 10 µM (NCI-H226) was 29%, the inhibition of growth at 10 µM (NCI-H23) was 19% and the inhibition of growth at 10 µM (NCI-H460) was 31%. It also gave an inhibition of growth at 10 µM (NCI-H522) of 20%, an inhibition of growth at 10 µM (HCC 2998) of 11% and an inhibition of growth at 10 µM (HCT-116) of 74%. For the same compound, the inhibition of growth at 10 µM (HCT-15) was 14%, the inhibition of growth at 10 µM (HT-29) was 29% and the inhibition of growth at 10 µM (KM12) was 44%. It also gave an inhibition of growth at 10 µM (SW-620) of 10%, an inhibition of growth at 10 µM (SF-268) of 16% and an inhibition of growth at 10 µM (SF-539) of 34%. For the same compound, the inhibition of growth at 10 µM (SNB-75) was 16%, the inhibition of growth at 10 µM (LOX IMVI) was 32% and the inhibition of growth at 10 µM (Malme-3M) was 20%. For the same compound, the inhibition of growth at 10 µM (MDA-MB-435) was 25%, the inhibition of growth at 10 µM (SK-MEL-2) was 24% and the inhibition of growth at 10 µM (SK-MEL-5) was 26%. For the same compound, the inhibition of growth at 10 µM (UACC-257) was less than 10%, the inhibition of growth at 10 µM (IGROV-1) was 65% and the inhibition of growth at 10 µM (OVCAR-3) was 35%. For the same compound, the inhibition of growth at 10 µM (NCI/ADR-RES) was less than 10%, the inhibition of growth at 10 µM (SK-OV-3) was less than 10% and the inhibition of growth at 10 µM (A498) was 43%. The inhibition of growth at 10 µM (ACHN) was 21%, the inhibition of growth at 10 µM (CAKI-1) was 44% and the inhibition of growth at 10 µM (SN12C) was 13%. It also gave an inhibition of growth at 10 µM (UO-31) of 16%, an inhibition of growth at 10 µM (PC-3) of 23% and an inhibition of growth at 10 µM (MCF7) of 47%. The inhibition of growth at 10 µM (MDA-MB-231) was 53%, the inhibition of growth at 10 µM (Hs-578T) was 34% and the inhibition of growth at 10 µM (T47D) was 38%. The inhibition of growth at 10 µM (MDA-MB-468) was 50%.
